Laboratory results as given in article PMC10451018 (Protein Science : A Publication of the Protein Society, 2023).

Legend:
[1] = target: T1, Azorhizobium caulinodans malic enzyme, AcME (Azorhizobium caulinodans, UniProt A8IFW0); assay: spectrophotometric NADH formation at […] nm; assay type: biochemical; conditions: L-malate as co-substrate
T1 sequence (A8IFW0 1-759): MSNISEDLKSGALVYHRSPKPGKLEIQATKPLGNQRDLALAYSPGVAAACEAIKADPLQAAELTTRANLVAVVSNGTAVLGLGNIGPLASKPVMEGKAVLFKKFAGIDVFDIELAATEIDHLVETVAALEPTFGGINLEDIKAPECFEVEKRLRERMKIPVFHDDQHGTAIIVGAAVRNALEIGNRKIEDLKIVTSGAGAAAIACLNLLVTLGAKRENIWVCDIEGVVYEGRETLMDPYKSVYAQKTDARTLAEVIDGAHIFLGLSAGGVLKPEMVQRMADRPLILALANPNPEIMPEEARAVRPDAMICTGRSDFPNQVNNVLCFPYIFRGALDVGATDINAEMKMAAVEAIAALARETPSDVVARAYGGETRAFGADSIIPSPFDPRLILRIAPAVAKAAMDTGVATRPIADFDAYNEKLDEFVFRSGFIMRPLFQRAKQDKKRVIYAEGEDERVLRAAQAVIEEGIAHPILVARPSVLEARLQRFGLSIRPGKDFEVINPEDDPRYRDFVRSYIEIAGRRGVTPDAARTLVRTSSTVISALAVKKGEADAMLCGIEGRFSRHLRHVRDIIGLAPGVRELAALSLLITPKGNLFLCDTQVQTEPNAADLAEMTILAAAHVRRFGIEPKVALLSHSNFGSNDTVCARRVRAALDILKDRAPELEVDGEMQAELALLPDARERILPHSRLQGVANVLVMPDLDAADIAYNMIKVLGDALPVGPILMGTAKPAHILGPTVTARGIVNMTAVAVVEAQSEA

[2] = target: T2, Aeropyrum pernix malate dehydrogenase, ApMDH (Aeropyrum pernix, UniProt Q9YEA1); assay: spectrophotometric NADH formation at […] nm; assay type: biochemical; conditions: L-malate as co-substrate
T2 sequence (Q9YEA1 1-308): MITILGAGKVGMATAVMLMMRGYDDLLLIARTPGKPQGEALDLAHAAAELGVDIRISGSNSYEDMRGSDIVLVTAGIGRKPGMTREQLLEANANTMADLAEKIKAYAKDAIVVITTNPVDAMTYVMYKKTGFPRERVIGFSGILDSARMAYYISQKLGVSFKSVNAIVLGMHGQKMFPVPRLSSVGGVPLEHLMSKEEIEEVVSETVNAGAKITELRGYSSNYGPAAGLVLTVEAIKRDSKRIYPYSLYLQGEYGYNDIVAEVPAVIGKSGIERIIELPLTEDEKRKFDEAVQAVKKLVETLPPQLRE

NC(=O)c1ccc[n+]([C@@H]2O[C@H](COP(=O)(O)OP(=O)(O)OC[C@H]3O[C@@H](n4cnc5c(N)ncnc54)[C@H](O)[C@@H]3O)[C@@H](O)[C@H]2O)c1 [NAD^+]
spectrophotometric NADH formation at 340 nm [1]: oxidation of L‐malate was accompanied by reduction of NAD^+ to NADH
spectrophotometric NADH formation at 340 nm [2]: oxidation of L‐malate was accompanied by reduction of NAD^+ to NADH
